The target of one experiment is T1, HiBit-BRM fusion protein (Homo sapiens, UniProt P51531).
T1 construct: expressed in transfected cells
Kind of experiment: HiBiT-BRM cell-based degradation assay (Nano-Glo HiBiT Lytic Detection, 24 h). As to conditions: HeLa cell line expressing HiBiT-BRM; for DC50: read-out: BRM HiBit Degradation IC50. The procedure, abridged: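 Luminescence from reconstituted NanoBiT luciferase in lysed HeLa HiBiT-BRM cells served as the measure of remaining BRM after 24 h treatment. Compounds were tested from 30 μM final downward in 3-fold steps. DMSO and 2 μM of a standard BRM/BRG1 degrader defined the scale limits.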
(With HiBiT, luminescence reflects the tagged protein that the partner subunit can reach.)

Experiment [1] deals with T2, HiBit-BRG1 fusion protein (Homo sapiens, UniProt P51532).
T2 construct: expressed in transfected cells
As to the kind of experiment: HiBiT-BRG1 cell-based degradation assay (Nano-Glo HiBiT Lytic Detection, 24 h). Conditions: HeLa cell line expressing HiBit-BRG1 and LgBit; for Dmax: read-out: BRG1 HiBit Degradation Maximum (%); for DC50: read-out: BRMG1 HiBit Degradation IC50. The procedure, abridged:
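HeLa cells stably expressing HiBiT-BRG1 plus LgBit, 5000/well, treated 24 h, then lysed with Nano-Glo HiBiT lytic reagent and luminescence read. % degradation normalised between DMSO (high control) and 2 μM reference BRM/BRG1 degrader (low control).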

T2 sequence (P51532 whole entry, the tested form may be a part): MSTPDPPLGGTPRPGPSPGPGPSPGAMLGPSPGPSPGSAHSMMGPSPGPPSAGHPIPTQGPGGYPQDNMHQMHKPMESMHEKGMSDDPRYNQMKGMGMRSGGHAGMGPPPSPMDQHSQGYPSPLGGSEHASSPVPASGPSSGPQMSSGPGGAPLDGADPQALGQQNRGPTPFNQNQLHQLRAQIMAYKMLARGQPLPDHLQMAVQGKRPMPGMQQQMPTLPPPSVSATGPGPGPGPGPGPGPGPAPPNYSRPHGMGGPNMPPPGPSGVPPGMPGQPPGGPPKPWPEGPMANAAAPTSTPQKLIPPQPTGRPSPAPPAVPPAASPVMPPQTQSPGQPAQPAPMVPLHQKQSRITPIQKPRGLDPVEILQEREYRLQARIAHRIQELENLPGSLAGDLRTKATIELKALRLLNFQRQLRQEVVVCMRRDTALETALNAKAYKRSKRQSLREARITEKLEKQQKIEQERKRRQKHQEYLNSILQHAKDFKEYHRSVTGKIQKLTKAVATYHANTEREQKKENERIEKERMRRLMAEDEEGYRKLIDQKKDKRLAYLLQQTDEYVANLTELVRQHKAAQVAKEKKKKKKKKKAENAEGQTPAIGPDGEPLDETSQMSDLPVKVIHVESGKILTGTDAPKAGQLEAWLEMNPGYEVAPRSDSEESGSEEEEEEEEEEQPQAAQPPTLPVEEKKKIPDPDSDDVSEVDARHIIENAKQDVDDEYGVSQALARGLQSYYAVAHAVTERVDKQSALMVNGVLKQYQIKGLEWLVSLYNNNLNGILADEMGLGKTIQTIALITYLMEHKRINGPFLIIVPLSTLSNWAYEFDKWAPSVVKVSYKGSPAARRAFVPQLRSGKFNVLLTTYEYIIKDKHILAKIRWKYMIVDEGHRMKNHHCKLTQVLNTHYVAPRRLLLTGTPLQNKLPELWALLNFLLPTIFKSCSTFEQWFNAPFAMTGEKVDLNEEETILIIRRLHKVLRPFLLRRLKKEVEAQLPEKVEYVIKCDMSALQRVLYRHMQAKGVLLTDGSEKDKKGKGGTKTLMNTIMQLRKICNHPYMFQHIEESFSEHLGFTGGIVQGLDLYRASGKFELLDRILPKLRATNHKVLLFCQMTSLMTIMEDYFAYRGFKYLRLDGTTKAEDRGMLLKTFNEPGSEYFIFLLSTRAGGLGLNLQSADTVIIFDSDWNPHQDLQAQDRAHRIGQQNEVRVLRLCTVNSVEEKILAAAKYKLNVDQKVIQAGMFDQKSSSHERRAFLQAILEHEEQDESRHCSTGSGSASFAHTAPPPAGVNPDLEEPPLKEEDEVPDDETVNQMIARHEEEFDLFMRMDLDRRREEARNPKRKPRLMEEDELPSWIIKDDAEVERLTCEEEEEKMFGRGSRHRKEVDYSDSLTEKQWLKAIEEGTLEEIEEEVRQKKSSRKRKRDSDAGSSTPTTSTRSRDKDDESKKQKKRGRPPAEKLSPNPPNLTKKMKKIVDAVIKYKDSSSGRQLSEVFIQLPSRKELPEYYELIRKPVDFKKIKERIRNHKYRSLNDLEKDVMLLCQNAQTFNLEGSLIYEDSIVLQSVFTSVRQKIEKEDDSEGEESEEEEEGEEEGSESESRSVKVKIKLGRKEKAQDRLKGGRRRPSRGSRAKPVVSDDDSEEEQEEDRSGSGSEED
T1 sequence (P51531 whole entry, the tested form may be a part): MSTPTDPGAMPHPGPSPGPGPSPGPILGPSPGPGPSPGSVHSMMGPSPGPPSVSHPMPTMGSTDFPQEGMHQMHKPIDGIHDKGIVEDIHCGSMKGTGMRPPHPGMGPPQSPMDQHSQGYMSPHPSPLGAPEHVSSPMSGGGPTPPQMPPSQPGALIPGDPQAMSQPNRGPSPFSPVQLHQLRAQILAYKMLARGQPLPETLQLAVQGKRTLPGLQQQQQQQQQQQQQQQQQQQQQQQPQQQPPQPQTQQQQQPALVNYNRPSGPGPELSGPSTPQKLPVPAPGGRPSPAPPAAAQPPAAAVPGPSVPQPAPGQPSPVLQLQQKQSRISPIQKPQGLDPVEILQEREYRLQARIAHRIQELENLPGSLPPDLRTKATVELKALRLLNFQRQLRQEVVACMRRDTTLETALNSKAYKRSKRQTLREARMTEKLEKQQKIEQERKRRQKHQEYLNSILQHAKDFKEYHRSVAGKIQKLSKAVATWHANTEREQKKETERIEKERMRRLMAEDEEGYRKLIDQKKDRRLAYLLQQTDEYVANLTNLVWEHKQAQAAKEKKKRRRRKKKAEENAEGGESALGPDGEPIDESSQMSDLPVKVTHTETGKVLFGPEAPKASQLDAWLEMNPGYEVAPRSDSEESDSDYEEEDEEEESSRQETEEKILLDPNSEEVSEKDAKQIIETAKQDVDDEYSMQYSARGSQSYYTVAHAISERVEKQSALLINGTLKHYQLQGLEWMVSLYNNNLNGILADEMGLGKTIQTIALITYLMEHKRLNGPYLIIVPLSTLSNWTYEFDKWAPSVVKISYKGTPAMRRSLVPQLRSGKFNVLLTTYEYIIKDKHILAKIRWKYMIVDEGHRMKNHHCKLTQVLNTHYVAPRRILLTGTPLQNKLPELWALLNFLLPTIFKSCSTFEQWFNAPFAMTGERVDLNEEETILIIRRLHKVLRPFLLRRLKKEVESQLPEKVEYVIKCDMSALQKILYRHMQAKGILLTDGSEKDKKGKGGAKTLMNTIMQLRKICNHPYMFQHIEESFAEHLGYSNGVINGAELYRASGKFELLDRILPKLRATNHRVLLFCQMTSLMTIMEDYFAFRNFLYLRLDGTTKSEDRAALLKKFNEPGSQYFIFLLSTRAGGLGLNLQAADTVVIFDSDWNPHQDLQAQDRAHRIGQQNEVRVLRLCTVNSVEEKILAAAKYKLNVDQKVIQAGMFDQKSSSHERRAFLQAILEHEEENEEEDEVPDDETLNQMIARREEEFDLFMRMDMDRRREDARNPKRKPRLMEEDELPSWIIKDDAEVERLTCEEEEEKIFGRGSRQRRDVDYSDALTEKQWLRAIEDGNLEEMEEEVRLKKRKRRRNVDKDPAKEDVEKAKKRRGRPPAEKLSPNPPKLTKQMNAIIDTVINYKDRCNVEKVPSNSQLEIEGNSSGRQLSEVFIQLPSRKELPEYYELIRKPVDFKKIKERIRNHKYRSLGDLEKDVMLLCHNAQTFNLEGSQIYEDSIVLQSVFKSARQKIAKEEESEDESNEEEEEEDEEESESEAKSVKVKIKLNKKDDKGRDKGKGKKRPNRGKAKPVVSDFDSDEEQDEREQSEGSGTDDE

Consider `Cc1ncsc1-c1ccc(CNC(=O)[C@@H]2C[C@@H](O)CN2C(=O)[C@@H](NC(=O)CCCNC(=O)[C@H]2CCc3[nH]c4nnc(-c5ccccc5O)cc4c3C2)C(C)(C)C)cc1` (single isomer, unassigned) [Compound 190], for which the “BRM HiBit Degradation Maximum (%)” value on HiBit-BRM fusion protein is reported as “C (“C” indicates maximum degradation < 50%)”. Besides, the Dmax in experiment [1] is below 50%.

Turning to `Cc1ncsc1-c1ccc(CNC(=O)[C@@H]2C[C@@H](O)CN2C(=O)[C@@H](NC(=O)CCCC(=O)N2CC(c3cc4cc(-c5ccccc5O)nnc4[nH]3)C2)C(C)(C)C)cc1` [Compound 6, (2S,4R)-4-hydroxy-1-((S)-2-(5-(3-(3-(2-hydroxyphenyl)-7H-pyrrolo[2,3-c]pyridazin-6-yl)azetidin-1-yl)-5-oxopentanamido)-3,3-dimethylbutanoyl)-N-(4-(4-methylthiazol-5-yl)benzyl)pyrrolidine-2-carboxamide], at HiBit-BRM fusion protein, the “BRM HiBit Degradation Maximum (%)” value was “B (“B” indicates maximum degradation ≥ 50%)” and the DC50 is above 1000 nM. In experiment [1], the Dmax is above 75% and the DC50 is above 1000 nM.

As for `Cc1ncsc1-c1ccc([C@H](C)NC(=O)[C@@H]2C[C@@H](O)CN2C(=O)[C@@H](c2cc(OCCN3CC(c4[nH]c5nnc(-c6cc(F)ccc6O)cc5c4C)C3)no2)C(C)C)cc1` (racemic) [Compound 130, (2S,4R)-1-((R)-2-(3-(2-(3-(3-(5-fluoro-2-hydroxyphenyl)-5-methyl-7H-pyrrolo[2,3-c]pyridazin-6-yl)azetidin-1-yl)ethoxy)isoxazol-5-yl)-3-methylbutanoyl)-4-hydroxy-N-((S)-1-(4-(4-methylthiazol-5-yl)phenyl)ethyl)pyrrolidine-2-carboxamide], on HiBit-BRM fusion protein, the “BRM HiBit Degradation Maximum (%)” value is reported as “A (“A” indicates maximum degradation ≥ 75%)” and the DC50 is below 10 nM. In experiment [1], the Dmax was above 75% and the DC50 was above 100 nM.

On to `Cc1ncsc1-c1ccc([C@H](C)NC(=O)[C@@H]2C[C@@H](O)CN2C(=O)[C@@H](c2cc(OCCN3Cc4[nH]c5nnc(-c6ccccc6O)cc5c4C3)no2)C(C)C)cc1` [Compound 123, (2S,4R)-4-hydroxy-1-[(2R)-2-(3-{2-[11-(2-hydroxyphenyl)-4,7,9,10-tetraazatricyclo[6.4.0.0^{2,6}]dodeca-1(12),2(6),8,10-tetraen-4-yl]ethoxy}-1,2-oxazol-5-yl)-3-methylbutanoyl]-N-[(1S)-1-[4-(4-methyl-1,3-thiazol-5-yl)phenyl]ethyl]pyrrolidine-2-carboxamide], for which, at HiBit-BRM fusion protein, the “BRM HiBit Degradation Maximum (%)” value was “A (“A” indicates maximum degradation ≥ 75%)” and the DC50 was above 100 nM. Also, the Dmax in experiment [1] was below 50%.

With `Cc1ncsc1-c1ccc([C@H](C)NC(=O)[C@@H]2C[C@@H](O)CN2C(=O)[C@@H](c2cc(OCCN3CCC(N4CC(c5[nH]c6nnc(-c7ccccc7O)cc6c5C)C4)CC3)no2)C(C)C)cc1` (racemic) [Compound 271, (2S,4R)-4-hydroxy-1-((R)-2-(3-(2-(4-(3-(3-(2-hydroxyphenyl)-5-methyl-7H-pyrrolo[2,3-c]pyridazin-6-yl)azetidin-1-yl)piperidin-1-yl)ethoxy)isoxazol-5-yl)-3-methylbutanoyl)-N-((S)-1-(4-(4-methylthiazol-5-yl)phenyl)ethyl)pyrrolidine-2-carboxamide], at HiBit-BRM fusion protein, the “BRM HiBit Degradation Maximum (%)” value is reported as “A (“A” indicates maximum degradation ≥ 75%)” and the DC50 is below 10 nM. In addition, in experiment [1], the Dmax is above 75% and the DC50 was above 10 nM.

With `Cc1ncsc1-c1ccc([C@H](C)NC(=O)[C@@H]2C[C@@H](O)CN2C(=O)C(c2cc(OCCNC3(C(=O)O)CCc4[nH]c5nnc(-c6ccccc6O)cc5c4C3)no2)C(C)C)cc1` (relative stereo) [Compound 90, (6R*)-6-({2-[(5-{1-[(2S,4R)-4-hydroxy-2-{[(1S)-1-[4-(4-methyl-1,3-thiazol-5-yl)phenyl]ethyl]carbamoyl}pyrrolidin-1-yl]-3-methyl-1-oxobutan-2-yl}-1,2-oxazol-3-yl)oxy]ethyl}amino)-3-(2-hydroxyphenyl)-5H,7H,8H,9H-pyridazino[3,4-b]indole-6-carboxylic acid], on HiBit-BRM fusion protein, the “BRM HiBit Degradation Maximum (%)” value was “A (“A” indicates maximum degradation ≥ 75%)” and the DC50 was above 1000 nM. The Dmax in experiment [1] was below 50%.

On to `Cc1ncsc1-c1ccc([C@H](C)NC(=O)[C@@H]2C[C@@H](O)CN2C(=O)[C@@H](c2cc(OCCNCc3cc4cc(-c5ccccc5O)nnc4[nH]3)no2)C(C)C)cc1` (racemic) [Compound 212, (2S,4R)-4-hydroxy-1-((R)-2-(3-(2-(((3-(2-hydroxyphenyl)-7H-pyrrolo[2,3-c]pyridazin-6-yl)methyl)amino)ethoxy)isoxazol-5-yl)-3-methylbutanoyl)-N-((S)-1-(4-(4-methylthiazol-5-yl)phenyl)ethyl)pyrrolidine-2-carboxamide], for which, on HiBit-BRM fusion protein, the “BRM HiBit Degradation Maximum (%)” value is on record as “A (“A” indicates maximum degradation ≥ 75%)” and the DC50 is above 100 nM. Moreover, in experiment [1], the Dmax was below 50%.

In the case of `Cc1ncsc1-c1ccc([C@H](C)NC(=O)[C@@H]2C[C@@H](O)CN2C(=O)[C@@H](c2cc(OCCN(C)CCC(=O)N3CC(c4c[nH]c5nnc(-c6ccccc6O)cc45)C3)no2)C(C)C)cc1` (racemic) [Compound 221, (2S,4R)-4-hydroxy-1-((R)-2-(3-(2-((3-(3-(3-(2-hydroxyphenyl)-7H-pyrrolo[2,3-c]pyridazin-5-yl)azetidin-1-yl)-3-oxopropyl)(methyl)amino)ethoxy)isoxazol-5-yl)-3-methylbutanoyl)-N-((S)-1-(4-(4-methylthiazol-5-yl)phenyl)ethyl)pyrrolidine-2-carboxamide], at HiBit-BRM fusion protein, the “BRM HiBit Degradation Maximum (%)” value is “B (“B” indicates maximum degradation ≥ 50%)” and the DC50 is above 100 nM. Further, the Dmax in experiment [1] was below 50%.

Turning to `Cc1ncsc1-c1ccc(CNC(=O)[C@@H]2C[C@@H](O)CN2C(=O)[C@@H](NC(=O)[C@H]2CC[C@H](c3cnc(N4CCC(c5cc6cc(-c7ccccc7O)nnc6[nH]5)CC4)nc3)CC2)C(C)(C)C)cc1` (racemic) [Compound 93, (2S,4R)-4-hydroxy-1-((S)-2-((1r,4S)-4-(2-(4-(3-(2-hydroxyphenyl)-7H-pyrrolo[2,3-c]pyridazin-6-yl)piperidin-1-yl)pyrimidin-5-yl)cyclohexane-1-carboxamido)-3,3-dimethylbutanoyl)-N-(4-(4-methylthiazol-5-yl)benzyl)pyrrolidine-2-carboxamide], on HiBit-BRM fusion protein, the “BRM HiBit Degradation Maximum (%)” value was “A (“A” indicates maximum degradation ≥ 75%)” and the DC50 was above 10 nM. Also, in experiment [1], the Dmax is above 75% and the DC50 was above 100 nM.

As to `Cc1ncsc1-c1ccc([C@H](C)NC(=O)[C@@H]2C[C@@H](O)CN2C(=O)[C@H](c2cc(C3CCN(C(=O)c4cc5cc(-c6ccccc6O)nnc5[nH]4)CC3)no2)C(C)C)cc1` (single isomer, unassigned) [Compound 201], on HiBit-BRM fusion protein, the “BRM HiBit Degradation Maximum (%)” value is “C (“C” indicates maximum degradation < 50%)”. Moreover, the Dmax in experiment [1] was below 50%.

Consider `Cc1ncsc1-c1ccc([C@H](C)NC(=O)[C@@H]2C[C@@H](O)CN2C(=O)C(c2cc(N3CCC(C(=O)N4CCc5[nH]c6nnc(-c7ccccc7O)cc6c5C4)CC3)no2)C(C)C)cc1` (mixture of isomers) [Compound 205, (2S,4R)-4-hydroxy-1-((R)-2-(3-(4-(3-(2-hydroxyphenyl)-6,7,8,9-tetrahydro-5H-pyrido[3′,4′:4,5]pyrrolo[2,3-c]pyridazine-6-carbonyl)piperidin-1-yl)isoxazol-5-yl)-3-methylbutanoyl)-N-((S)-1-(4-(4-methylthiazol-5-yl)phenyl)ethyl)pyrrolidine-2-carboxamide], for which the “BRM HiBit Degradation Maximum (%)” value on HiBit-BRM fusion protein was “C (“C” indicates maximum degradation < 50%)”. The Dmax in experiment [1] was below 50%.

Turning to `Cc1ncsc1-c1ccc([C@H](C)NC(=O)[C@@H]2C[C@@H](O)CN2C(=O)[C@@H](c2cc(OCCN3CCC34CC(c3c[nH]c5nnc(-c6ccccc6O)cc35)C4)no2)C(C)C)cc1` (mixture of isomers) [Compound 151, (2S,4R)-4-hydroxy-1-((R)-2-(3-(2-(6-(3-(2-hydroxyphenyl)-7H-pyrrolo[2,3-c]pyridazin-5-yl)-1-azaspiro[3.3]heptan-1-yl)ethoxy)isoxazol-5-yl)-3-methylbutanoyl)-N-((S)-1-(4-(4-methylthiazol-5-yl)phenyl)ethyl)pyrrolidine-2-carboxamide], on HiBit-BRM fusion protein, the “BRM HiBit Degradation Maximum (%)” value is “A (“A” indicates maximum degradation ≥ 75%)” and the DC50 is above 100 nM. For the same compound, the Dmax in experiment [1] is below 50%.

In the case of `Cc1ncsc1-c1ccc([C@H](C)NC(=O)[C@@H]2C[C@@H](O)CN2C(=O)C(c2cc(OCC(=O)N[C@@]3(C(=O)O)CCc4[nH]c5nnc(-c6ccccc6O)cc5c4C3)no2)C(C)C)cc1` (single isomer, unassigned) [Compound 88], the “BRM HiBit Degradation Maximum (%)” value on HiBit-BRM fusion protein is “C (“C” indicates maximum degradation < 50%)”. Besides, the Dmax in experiment [1] is below 50%.

For `Cc1ncsc1-c1ccc(CNC(=O)[C@@H]2C[C@@H](O)CN2C(=O)[C@@H](NC(=O)CCCCN2CC(c3cc4cc(-c5ccccc5O)nnc4[nH]3)C2)C(C)(C)C)cc1` (racemic) [Compound 297, (2S,4R)-4-hydroxy-1-((S)-2-(5-(3-(3-(2-hydroxyphenyl)-7H-pyrrolo[2,3-c]pyridazin-6-yl)azetidin-1-yl)pentanamido)-3,3-dimethylbutanoyl)-N-(4-(4-methylthiazol-5-yl)benzyl)pyrrolidine-2-carboxamide], the “BRM HiBit Degradation Maximum (%)” value on HiBit-BRM fusion protein was “C (“C” indicates maximum degradation < 50%)”. In addition, the Dmax in experiment [1] is below 50%.

These data come from patent US20240024488A1, “COMPOUNDS AND USES THEREOF” (Foghorn Therapeutics Inc., priority 2020, published 2024).
